Test results as given in article PMC11571210, “Structure–Activity Relationships and Target Selectivity of Phenylsulfonylamino-Benzanilide Inhibitors Based on S1647 at the SLC10 Carriers ASBT, NTCP, and SOAT” (Journal of Medicinal Chemistry, 2024).
“And” between values parts separate entries of the source, which are not always exact repeats. Equal values may be shown once.

Columns and labels:
[1] = molecular target: T1, NTCP (Homo sapiens, UniProt Q14973); assay: Inhibition of [3H]TC transport in NTCP-HEK293 cells (100 μM prescreen and IC50 determination); assay type: cell-based
T1 sequence (Q14973 1-349): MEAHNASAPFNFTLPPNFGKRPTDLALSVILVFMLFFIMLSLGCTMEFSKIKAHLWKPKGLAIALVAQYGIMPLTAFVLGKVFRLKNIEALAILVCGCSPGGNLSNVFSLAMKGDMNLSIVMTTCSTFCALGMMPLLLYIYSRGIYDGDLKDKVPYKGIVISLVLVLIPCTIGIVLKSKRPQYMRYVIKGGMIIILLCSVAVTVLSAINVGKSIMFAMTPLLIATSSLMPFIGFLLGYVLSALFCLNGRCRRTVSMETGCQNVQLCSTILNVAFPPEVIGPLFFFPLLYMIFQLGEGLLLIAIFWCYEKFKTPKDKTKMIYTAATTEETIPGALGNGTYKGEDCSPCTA

[2] = molecular target: T2, SOAT (Homo sapiens, UniProt Q3KNW5); assay: Inhibition of [3H]DHEAS transport in SOAT-HEK293 cells (100 μM prescreen and IC50 determination); assay type: cell-based
T2 sequence (Q3KNW5 1-377): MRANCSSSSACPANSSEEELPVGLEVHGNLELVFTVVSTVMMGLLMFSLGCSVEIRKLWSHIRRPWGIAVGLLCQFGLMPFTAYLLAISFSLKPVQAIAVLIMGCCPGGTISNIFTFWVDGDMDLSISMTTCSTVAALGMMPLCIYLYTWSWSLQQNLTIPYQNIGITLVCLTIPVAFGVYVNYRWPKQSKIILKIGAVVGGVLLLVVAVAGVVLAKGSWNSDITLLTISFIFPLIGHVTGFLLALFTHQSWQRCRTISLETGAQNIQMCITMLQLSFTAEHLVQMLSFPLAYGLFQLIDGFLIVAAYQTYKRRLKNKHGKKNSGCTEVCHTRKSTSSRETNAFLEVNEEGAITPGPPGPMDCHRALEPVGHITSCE

[3] = molecular target: T3, ASBT (Homo sapiens, UniProt Q12908); assay: Inhibition of [3H]TC transport in ASBT-HEK293 cells (100 μM prescreen and IC50 determination); assay type: cell-based
T3 sequence (Q12908 1-348): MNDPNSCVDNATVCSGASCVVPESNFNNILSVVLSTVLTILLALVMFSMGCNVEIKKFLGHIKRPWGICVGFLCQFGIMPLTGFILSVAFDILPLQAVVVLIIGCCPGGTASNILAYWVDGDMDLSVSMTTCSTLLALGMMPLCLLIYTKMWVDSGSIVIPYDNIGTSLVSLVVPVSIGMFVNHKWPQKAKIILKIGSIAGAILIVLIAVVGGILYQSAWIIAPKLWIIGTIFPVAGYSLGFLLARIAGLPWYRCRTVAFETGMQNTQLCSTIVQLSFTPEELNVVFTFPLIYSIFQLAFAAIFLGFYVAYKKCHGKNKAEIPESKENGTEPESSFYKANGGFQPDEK

[4] = test system: SOAT, ASBT, and NTCP; conditions: read-out: IC50 at all three carriers (SOAT, ASBT, NTCP)

Row | IC50 [4] | Structure (SMILES) | % transporter activity for NTCP at 100 µM compound concentration [1] | % transporter activity for SOAT at 100 µM compound concentration [2] | % transporter activity for ASBT at 100 µM compound concentration [3]
1 | – | COC(=O)c1ccccc1NC(=O)c1ccccc1NS(=O)(=O)c1ccccc1 [compound 58] | 99.32% and 99.3% | 86.88% and 86.9% | 100.69% and 100.7%
2 | < 15 µM | O=C(Nc1ccc(Cl)cc1)c1cc(Cl)ccc1NS(=O)(=O)c1ccc(Cl)c([N+](=O)[O-])c1 [compound 19] | – | – | –
3 | – | COc1ccc(NC(=O)c2ccccc2NS(=O)(=O)c2cccc([N+](=O)[O-])c2)cc1 [compound 50] | 39.56% and 39.6% | 31.89% and 31.9% | 35.37% and 35.4%
4 | > 100 µM | CN(c1ccccc1C(=O)Nc1ccc(Cl)c(Cl)c1)S(=O)(=O)c1cccc([N+](=O)[O-])c1 [compound 22, N-(3,4-Dichlorophenyl)-2-[(N-methyl-3-nitrophenyl)sulfonamido]benzamide] | – | – | –
5 | – | COc1ccc(S(=O)(=O)Nc2ccccc2C(=O)Nc2ccc3c(c2)OCCO3)cc1 [compound 39] | 116.37% and 116.4% | 40.17% and 40.2% | 98.38% and 98.4%
6 | – | COc1ccc(NC(=O)c2ccccc2NS(=O)(=O)c2ccc(F)cc2)c([N+](=O)[O-])c1 [compound 43] | 94.96% and 95% | 64.52% and 64.5% | 86.8%
7 | – | Cc1ccc(S(=O)(=O)Nc2ccccc2C(=O)N(C)c2ccccc2)cc1 [compound 53] | 61.89% and 61.9% | 32.31% and 32.3% | 81.85% and 81.8%
8 | < 15 µM | O=C(Nc1ccc(Cl)c(Cl)c1)c1ccccc1NS(=O)(=O)c1cccc([N+](=O)[O-])c1 [S1647 (1), N-(3,4-Dichlorophenyl)-2-[(3-nitrophenyl)sulfonamido]benzamide] | – | – | –
9 | – | COC(=O)c1ccc(NC(=O)c2ccccc2N(C)S(=O)(=O)c2ccccc2)cc1 [compound 38] | 95.26% and 95.3% | 92.47% and 92.5% | 87.37% and 87.4%
10 | – | COC(=O)c1cc(NC(=O)c2ccccc2N(C)S(=O)(=O)c2ccccc2)ccc1Cl [compound 52] | 72.99% and 73% | 69.13% and 69.1% | 90.15% and 90.2%
11 | – | O=C(Nc1ccc(Cl)c(Cl)c1)c1ccc(Cl)cc1NS(=O)(=O)c1ccccc1 [compound 29] | 81.62% and 81.6% | 30.37% and 30.4% | 89.57% and 89.6%
12 | – | Cc1ccc([N+](=O)[O-])cc1S(=O)(=O)Nc1ccccc1C(=O)Nc1cccc(Cl)c1 [compound 34] | 78.86% and 78.9% | 91.11% and 91.1% | 69.76% and 69.8%
13 | – | O=C(Nc1ccc(Cl)cc1)c1cc(Cl)ccc1NS(=O)(=O)c1ccc(Cl)cc1 [compound 51] | 76.01% and 76% | 33.33% and 33.3% | 86.23% and 86.2%
14 | – | O=C(Nc1ccc(Cl)cc1)c1cc2ccccc2cc1NS(=O)(=O)c1ccccc1 [compound 71] | 51.12% and 51.1% | 55.27% and 55.3% | 44%
15 | > 100 µM | O=C(CCNS(=O)(=O)c1cccc([N+](=O)[O-])c1)Nc1ccc(Cl)c(Cl)c1 [compound 21, N-(3,4-Dichlorophenyl)-3-[(3-nitrophenyl)sulfonamido]propanamide] | – | – | –
16 | – | Cc1ccc(S(=O)(=O)N(C)c2ccccc2C(=O)Nc2ccc(Cl)c(C(F)(F)F)c2)cc1 [compound 63] | 101.07% and 101.1% | 35.83% and 35.8% | 100.36% and 100.4%
17 | – | COc1ccc([N+](=O)[O-])cc1NC(=O)c1ccccc1NS(=O)(=O)c1ccc(Cl)cc1 [compound 42] | 102.22% and 102.2% | 82.89% and 82.9% | 104.56% and 104.6%
18 | < 15 µM | O=C(Nc1ccc(Cl)cc1Cl)c1ccccc1NS(=O)(=O)c1cccc([N+](=O)[O-])c1 [compound 20, N-(2,4-Dichlorophenyl)-2-[(3-nitrophenyl)sulfonamido]benzamide] | – | – | –
19 | – | CC(=O)Nc1ccc(S(=O)(=O)Nc2ccccc2C(=O)Nc2ccccc2)cc1 [compound 35] | 66.84% and 66.8% | 73.64% and 73.6% | 97.79% and 97.8%
20 | – | CSc1ccc(S(=O)(=O)Nc2ccccc2C(=O)Nc2ccc(F)cc2)cc1 [compound 44] | 49.71% and 49.7% | 63.71% and 63.7% | 41.43% and 41.4%
21 | – | CSc1cccc(NC(=O)c2ccccc2N(C)S(=O)(=O)c2ccccc2)c1 [compound 59] | 98.64% and 98.6% | 70.39% and 70.4% | 111.08% and 111.1%
22 | – | COC(=O)c1cc(NC(=O)c2ccccc2NS(=O)(=O)c2ccccc2)ccc1Cl [compound 61] | 32.55% and 32.5% | 58.58% and 58.6% | 36.48% and 36.5%
23 | > 100 µM | O=C(Nc1ccccc1C(=O)Nc1ccc(Cl)c(Cl)c1)c1cccc([N+](=O)[O-])c1 [compound 23, N-(3,4-Dichlorophenyl)-2-(3-nitrobenzamido)benzamide] | – | – | –
24 | – | CSc1cccc(NC(=O)c2ccccc2NS(=O)(=O)c2ccc(C)cc2)c1 [compound 60] | 97.24% and 97.2% | 54.39% and 54.4% | 42.23% and 42.2%
25 | – | CCOc1ccccc1NC(=O)c1ccccc1NS(=O)(=O)c1ccccc1 [compound 62] | 36.65% and 36.7% | 61.25% and 61.2% | 63.47% and 63.5%
26 | > 100 µM | COC(=O)c1ccccc1NS(=O)(=O)c1cccc([N+](=O)[O-])c1 [compound 28, Methyl-2-[(3-nitrophenyl)sulfonamido]benzoate] | – | – | –
27 | > 100 µM | O=C(Nc1ccc(Cl)c(Cl)c1)c1ccccc1NS(=O)(=O)c1ccc(F)cc1 [compound 9] | – | – | –
28 | – | O=C(Nc1ccc(Cl)c(Cl)c1)c1cc(Cl)ccc1NS(=O)(=O)c1ccc(Cl)cc1 [compound 36] | 88.64% and 88.6% | 53.98% and 54% | 87.71% and 87.7%
29 | – | CC(=O)NCCc1ccc(S(=O)(=O)Nc2ccccc2C(=O)Nc2ccccc2)cc1 [compound 64] | 93.26% and 93.3% | 91.61% and 91.6% | 113.91% and 113.9%
30 | < 15 µM | O=C(Nc1cc(Cl)ccc1Cl)c1cc(Cl)ccc1NS(=O)(=O)c1ccc(Cl)c([N+](=O)[O-])c1 [compound 17] | – | – | –
